These results are taken from patent US8536332B2, “Modulating signal transduction pathways with substituted pyridol [2,3-b] pyrazines” (Aeterna Zentaris GmbH, priority 2007, dated 2013).

One data set concerns MDA-MB468. Briefly: XTT assay, anti-proliferative activity, MDA-MB468. It is filed as cell-based. Conditions: Homo sapiens, MDA-MB-468; 45 h incubation. The protocol:
(§1) The principle of this test is based on the intracellular reduction of the tetrazolium dye XTT (sodium 3′-[1-(phenylaminocarbonyl)-3,4-tetrazolium]bis(4-methoxy-6-nitro)benzenesulphonic acid, Sigma) to a formazan dye by mitochondrial dehydrogenases. The dye is formed only by metabolically active cells. Its photometrically measurable intensity is a quantitative indicator for the presence of living cells. The reduction in the dye formation as a result of incubation of the cells with substances serves as a parameter for the anti-proliferative activity.
(§2) The tumour cell lines (ATCC) were seeded in 96-well microtitre plates in a defined cell count (5000 cells/well for Hct116; 10000 cells/well for MDA MB468), and incubated overnight at 37° C., 5% CO2 and 95% air humidity. The test substances were made up as stock solutions (10 mM) in DMSO. […] The cell plates were then incubated for 45 h at 37° C., 5% CO2 and 95% air humidity.
(§3) For the detection reaction, the XTT substrate was mixed with PMS (N-methyldibenzopyrazine methylsulphate, Sigma) and added to the cells, to result in a final concentration of 325 μg of XTT/ml and 2.5 μg PMS/ml. The mixture was then incubated for 3 h at 37° C., 95% air humidity. Subsequently the formazan salt formed by cellular dehydrogenases was quantified at an absorption of 490 nm.
(§4) The evaluation of the % inhibition values was done by means of the following formula from the values for the optical densities measured in each case at 490 nm:
(§5) The controls were determined 8 fold, the substance samples 2 fold. 0% control contained no cells and the 100% control contained no test substance. The EC50 values were determined with GraphPadPrism.

The test system of the next data set is Hct116. Briefly: XTT assay, anti-proliferative activity, Hct116. In kind it is cell-based. The note with it: Homo sapiens, HCT-116; 45 h incubation. The protocol: as §1, §2, §3, §4, §5
(In general: Tetrazolium assays rely on reduction of a dye to a coloured formazan, in cell work by metabolically active cells.)

By melting point is commonly meant the temperature of the solid-liquid transition. What is called EC50 is the concentration at which the effect is half-maximal. The low end stands for an effect from little substance, the high end for a need for much substance.

Some results are limits rather than exact numbers.

`CCNC(=S)Nc1ccc2ncc(Nc3ccccc3)nc2n1` [Compound 148, 1-Ethyl-3-(3-phenylamino-pyrido[2,3-b]pyrazin-6-yl)-thiourea] showed a melting point of 285 °C. Moreover, the concentration giving a half-maximal response (EC50) with MDA-MB468 was below 5 µM. The same compound came in with an EC50 with Hct116 below 10 µM.

As for `CCNC(=S)Nc1ccc2ncc(-c3cc(Cl)c(O)c(Cl)c3)nc2n1` [Compound 138, 1-[3-(3,5-Dichloro-4-hydroxy-phenyl)-pyrido[2,3-b]pyrazin-6-yl]-3-ethyl-thiourea], the EC50 with MDA-MB468 and with Hct116 was below 10 µM in each case.

The compound `CCNC(=O)Nc1ccc2ncc(-c3cccs3)nc2n1` [Compound 152, 1-Ethyl-3-(3-thiophen-2-yl-pyrido[2,3-b]pyrazin-6-yl)-urea] gave a melting point of 227 to 228 °C. In the data set on MDA-MB468, this compound registered an EC50 below 10 µM. Moreover, the EC50 in the data set on Hct116 is below 10 µM.

`CCNC(=S)Nc1ccc2ncc(Nc3ccc(O)c(OC)c3)nc2n1` [Compound 150, 1-Ethyl-3-[3-(4-hydroxy-3-methoxy-phenylamino)-pyrido[2,3-b]pyrazin-6-yl]-thiourea] had a melting point of 269 °C. In the data set with MDA-MB468, the EC50 is below 5 µM. The compound further yielded an EC50 in the data set with Hct116 below 5 µM.

In the case of `CCNC(=S)Nc1ccc2ncc(-c3ccc(N)c(OC)c3)nc2n1` [Compound 140, 1-[3-(4-Amino-3-methoxy-phenyl)-pyrido[2,3-b]pyrazin-6-yl]-3-ethyl-thiourea], the EC50 in the data set on MDA-MB468 and in the data set on Hct116 was below 5 µM throughout.

Take `CCNC(=S)Nc1ccc2ncc(-c3cc(OC)c(OC)c(OC)c3)nc2n1` [Compound 134, 1-Ethyl-3-[3-(3,4,5-trimethoxy-phenyl)-pyrido[2,3-b]pyrazin-6-yl]-thiourea]: the melting point worked out at 230 °C. The EC50 in the data set with MDA-MB468 is below 5 µM. In addition, the EC50 in the data set on Hct116 was below 5 µM.

In turn, `CCNC(=O)Nc1ccc2ncc(Nc3ccc(Cl)c(C(=O)O)c3)nc2n1` [Compound 434, 2-Chloro-5-[6-(3-ethyl-ureido)-pyrido[2,3-b]pyrazin-3-ylamino]-benzoic acid] gave a melting point of 324 to 329 °C.

In turn, `CCNC(=S)Nc1ccc2ncc(Nc3ccc(C(C)=O)cc3)nc2n1` [Compound 467, 1-[3-(4-Acetyl-phenylamino)-pyrido[2,3-b]pyrazin-6-yl]-3-ethyl-thiourea] came in with a melting point of 232 °C.

As to `CCCNC(=O)Nc1cnc2ccc(-c3cc(Cl)c(O)c(Cl)c3)nc2n1` [Compound 551, 1-[6-(3,5-Dichloro-4-hydroxy-phenyl)-pyrido[2,3-b]pyrazin-3-yl]-3-propyl-urea], the melting point was in the range of 265 to 268 °C.

With `COc1cc(-c2ccc3ncc(NC(=S)NC4CCCC4)nc3n2)ccc1O` [Compound 519, 1-Cyclopentyl-3-[6-(4-hydroxy-3-methoxy-phenyl)-pyrido[2,3-b]pyrazin-3-yl]-thiourea], the melting point is 233 to 235 °C.

As for `CCNC(=S)Nc1cnc2ccc(Nc3ccc(C)cc3)nc2n1` [Compound 25, 1-Ethyl-3-(6-p-tolylamino-pyrido[2,3-b]pyrazin-3-yl)-thiourea], the melting point was found to be 195 °C.

`CCNC(=O)Nc1ccc2ncc(-c3cccc(Cl)c3)nc2n1` [Compound 111, 1-[3-(3-Chloro-phenyl)-pyrido[2,3-b]pyrazin-6-yl]-3-ethyl-urea] yielded a melting point of 262 to 264 °C.

As to `CCNC(=O)Nc1ccc2ncc(-c3cc(Cl)ccc3Cl)nc2n1` [Compound 92, 1-[3-(2,5-Dichloro-phenyl)-pyrido[2,3-b]pyrazin-6-yl]-3-ethyl-urea], the melting point lay within 264 to 269 °C.

As for `CCNC(=O)Nc1ccc2ncc(Nc3cccc(C)c3C)nc2n1` [Compound 378, 1-[3-(2,3-Dimethyl-phenylamino)-pyrido[2,3-b]pyrazin-6-yl]-3-ethyl-urea], the melting point was 225 °C.

As for `CCNC(=S)Nc1cnc2ccc(Nc3ccc(O)c(Cl)c3)nc2n1` [Compound 208, 1-[6-(3-Chloro-4-hydroxy-phenylamino)-pyrido[2,3-b]pyrazin-3-yl]-3-ethyl-thiourea], the melting point was determined as 203 °C.

`COc1ccc(-c2ccc3ncc(NC(=O)Nc4ccc(N5C(=O)C=CC5=O)cc4)nc3n2)cc1OC` [Compound 579, 1-[6-(3,4-Dimethoxy-phenyl)-pyrido[2,3-b]pyrazin-3-yl]-3-[4-(2,5-dioxo-2,5-dihydro-pyrrol-1-yl)-phenyl]-urea]: the melting point lay in the range of 279 to 283 °C.

As to `CCNC(=O)Nc1ccc2ncc(Nc3cccc(CO)c3)nc2n1` [Compound 154, 1-Ethyl-3-[3-(3-hydroxymethyl-phenylamino)-pyrido[2,3-b]pyrazin-6-yl]-urea], the melting point is 238 °C.

As to `CCNC(=O)Nc1ccc2ncc(-c3ccc(OP(=O)(OCC)OCC)c(OC)c3)nc2n1`, the melting point was 182 to 184 °C.

Take `CCNC(=S)Nc1ccc2ncc(Nc3ccc(O)cc3)nc2n1` [Compound 161, 1-Ethyl-3-[3-(4-hydroxy-phenylamino)-pyrido[2,3-b]pyrazin-6-yl]-thiourea]: the melting point amounted to 262 °C.

As to `CCNC(=O)Nc1ccc2ncc(-c3ccc(C(=O)OC)cc3)nc2n1` [Compound 132, 4-[6-(3-Ethyl-ureido)-pyrido[2,3-b]pyrazin-3-yl]-benzoic acid methyl ester], the melting point worked out at 260 °C.

As for `CCNC(=O)Nc1ccc2ncc(-c3ccc(NC(=O)OCCOCCOCCOC)c(OC)c3)nc2n1` [Compound 44, {4-[6-(3-Ethyl-ureido)-pyrido[2,3-b]pyrazin-3-yl]-2-methoxy-phenyl}-carbamic acid 2-[2-(2-methoxy-ethoxy)-ethoxy]-ethyl ester], the melting point was above 330 °C.

Turning to `COc1ccc(NC(=O)Nc2cnc3ccc(-c4ccc(O)c(OC)c4)nc3n2)cc1` [Compound 625, 1-(4-Methoxy-phenyl)-3-[6-(4-hydroxy-3-methoxy-phenyl)-pyrido[2,3-b]pyrazin-3-yl]-urea], the melting point was 235 to 238 °C.

For `CCNC(=O)Nc1cnc2ccc(-c3cc(Cl)c(O)c(Cl)c3)nc2n1` [Compound 9, 1-[6-(3,5-Dichloro-4-hydroxy-phenyl)-pyrido[2,3-b]pyrazin-3-yl]-3-ethyl-urea], the melting point was above 300 °C.

Take `COc1cc(-c2ccc3ncc(NC(=O)NC4CCC(C)CC4)nc3n2)ccc1O` (centres unmarked) [Compound 612, 1-[6-(4-Hydroxy-3-methoxy-phenyl)-pyrido[2,3-b]pyrazin-3-yl]-3-(4-methyl-cyclohexyl)-urea]: the melting point lay within 272 to 273 °C.

`CCNC(=O)Nc1ccc2ncc(-c3cc(Cl)cc(Cl)c3)nc2n1` [Compound 90, 1-[3-(3,5-Dichloro-phenyl)-pyrido[2,3-b]pyrazin-6-yl]-3-ethyl-urea] returned a melting point of 298 to 305 °C.

Turning to `Cc1cc(-c2ccc3ncc(NC(=O)Nc4ccccc4)nc3n2)cc(C)c1O` [Compound 595, 1-[6-(4-Hydroxy-3,5-dimethyl-phenyl)-pyrido[2,3-b]pyrazin-3-yl]-3-phenyl-urea], the melting point is 271 to 273 °C.

Compound `CCNC(=O)Nc1ccc2ncc(-c3ccc(NC(C)=O)c(OC)c3)nc2n1` [Compound 77, N-{4-[6-(3-Ethyl-ureido)-pyrido[2,3-b]pyrazin-3-yl]-2-methoxy-phenyl}-acetamide] came in with a melting point above 300 °C.

In the case of `CCNC(=S)Nc1ccc2ncc(Nc3ccc(C)c(OC)c3)nc2n1` [Compound 162, 1-Ethyl-3-[3-(3-methoxy-4-methyl-phenylamino)-pyrido[2,3-b]pyrazin-6-yl]-thiourea], the melting point stood at 288 °C.

`CCNC(=S)Nc1cnc2ccc(Nc3ccc(OC)c(O)c3)nc2n1` [Compound 205, 1-Ethyl-3-[6-(3-hydroxy-4-methoxy-phenylamino)-pyrido[2,3-b]pyrazin-3-yl]-thiourea] gave a melting point of 166 °C.

`CCNC(=S)Nc1ccc2ncc(Nc3ccc(C)c(NS(C)(=O)=O)c3)nc2n1` [Compound 165, N-{5-[6-(3-Ethyl-thioureido)-pyrido[2,3-b]pyrazin-3-ylamino]-2-methyl-phenyl}-methanesulfonamide] showed a melting point of 268 °C.

As for `CCNC(=O)Nc1ccc2ncc(-c3cccc(C)c3)nc2n1` [Compound 100, 1-Ethyl-3-(3-m-tolyl-pyrido[2,3-b]pyrazin-6-yl)-urea], the melting point was 232 to 234 °C.

`CCNC(=O)Nc1ccc2ncc(-c3ccccc3OCc3ccccc3)nc2n1` [Compound 57, 1-[3-(2-Benzyloxy-phenyl)-pyrido[2,3-b]pyrazin-6-yl]-3-ethyl-urea]: the melting point was 181 to 183 °C.

On to `CCN(CC)C(=O)Nc1cnc2ccc(-c3ccc(O)c(OC)c3)nc2n1` [Compound 632, 1,1-Diethyl-3-[6-(4-hydroxy-3-methoxy-phenyl)-pyrido[2,3-b]pyrazin-3-yl]-urea], for which the melting point is 214 to 216 °C.

For the compound `COc1cc(-c2ccc3ncc(NC(=O)Nc4ccc(-n5cccc5)cc4)nc3n2)ccc1O` [Compound 623, 1-[6-(4-Hydroxy-3-methoxy-phenyl)-pyrido[2,3-b]pyrazin-3-yl]-3-(4-pyrrol-1-yl-phenyl)-urea], the melting point lay within 263 to 265 °C.
